Reference: patent publication US12358875B2, “N-(phenyl)-indole-3-sulfonamide derivatives and related compounds as GPR17 modulators for treating CNS disorders such as multiple sclerosis” (UCB Pharma GMBH, priority 2019, dated 2025)

The molecules below were run against GPR17 (Homo sapiens, UniProt Q13304) (assay: cAMP accumulation functional assay (HTRF), Schild analysis against MDL29,951 in CHO hGPR17). Conditions: CHO hGPR17, Schild analysis vs MDL29,951, 5 μM forskolin; read-out: cAMP assay pA2 (converted).
Sequence of GPR17 (Q13304 29-367 limits assumed): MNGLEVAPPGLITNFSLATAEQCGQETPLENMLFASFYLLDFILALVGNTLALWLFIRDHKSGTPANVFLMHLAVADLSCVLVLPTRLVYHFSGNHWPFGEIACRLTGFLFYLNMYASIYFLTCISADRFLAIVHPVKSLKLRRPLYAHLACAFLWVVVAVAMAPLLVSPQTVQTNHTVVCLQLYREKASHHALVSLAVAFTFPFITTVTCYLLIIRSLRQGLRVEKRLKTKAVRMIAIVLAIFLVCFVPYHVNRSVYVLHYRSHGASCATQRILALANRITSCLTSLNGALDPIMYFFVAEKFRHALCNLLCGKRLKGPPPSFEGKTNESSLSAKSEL
Format: cell-based
Set-up: host or cells: Flp-In T-REx CHO
Description: Flp-In T-REx CHO cells stably expressing human GPR17 receptor (CHO hGPR17) from Evi Kostenis' lab (Bonn University, Germany) were cultured at 37° C. in a humidified atmosphere of 5% CO2. Cells were grown in DMEM with Nutrient Mixture F-12 supplemented with hygromycin B (500 μg/ml) and blasticidin (30 μg/ml). Expression from the Flp-In locus was induced by treatment with doxycycline (1 μg/ml) for 16-20 h prior assays.
GPR17 activation can also recruit Gi-type G-protein signaling, resulting in a decrease of intracellular cyclic adenosine monophosphate (cAMP). Intracellular cAMP changes can be measured using the HTRF cAMP dynamic assay kit from CisBio (Codolet, France). Using homogenous time-resolved fluorescence technology (HTRF), the assay is based on competition between native cAMP produced by cells and cAMP labelled with the dye d2. The tracer binding was determined by an anti-cAMP antibody labeled with cryptate.
CHO hGPR17 were detached with PBS containing EDTA and dispatched in black 384-well plates with 5,000 cells per well. Cells were first incubated for 30 minutes at room temperature in HBSS Hepes (pH 7.4) containing vehicle or varying concentrations of test GPR17 antagonist/inverse agonist compounds. Then, a dose response curve of MDL29,951 GPR17 agonist (typically from 10^−5M to 10^−10M) was added on vehicle and on each test GPR17 antagonist/inverse agonist compound concentration in a final volume of 20 μL HBSS Hepes buffer (pH 7.4) containing 1% DMSO, 5 μM forskolin and 0.1 mM IBMX. After 60 minutes incubation at room temperature, the reaction is terminated and the cells lysed by adding the d2 detection reagent and the cryptate reagent in 10 μL lysis buffer each according to manufacturer's instructions. After 60 minutes incubation, changes in cAMP concentrations are measured according to manufacturer's instructions using an Envision plate reader with laser excitation. All incubations were performed in duplicate. Data was analyzed using GraphPad Prism software using the 4-parameter logistic equation to measure MDL29,951 pEC50s in absence and presence of GPR17 antagonist/inverse agonist test compounds. Dose ratio (DR) were plotted against antagonist concentrations and Schild analysis provided estimated affinity pA2 of GPR17 antagonist/inverse agonist test compounds.
The activities of the Example compounds tested are depicted in the table below. The activity ranges A, B and C refer to pA2 values in the cAMP assay as follows: “A”: pA2 6.5≤x<7.5, “B”: pA2 7.5≤x<8.5, “C”: 8.5≤pA2.

| SMILES | Kb |
| --- | --- |
| [N-]=[N+]=NCCn1cc(S(=O)(=O)Nc2cc(F)c(Br)cc2F)c2ccc(Cl)cc21 [Example I-36, 1-(2-azidoethyl)-N-(4-bromo-2,5-difluorophenyl)-6-chloroindole-3-sulfonamide] | 0.0316 to 0.316 µM |
| O=S(=O)(Nc1cc(F)c(Br)cc1F)c1cn(CC(F)CO)c2cc(Cl)ccc12 (centres unmarked) [Example I-7, N-(4-bromo-2,5-difluorophenyl)-6-chloro-1-(2-fluoro-3-hydroxypropyl)indole-3-sulfonamide] | 0.00316 to 0.0316 µM |
| O=S(=O)(Nc1cc(F)c(Br)cc1F)c1cn(CC(O)CF)c2cc(Cl)ccc12 (centres unmarked) [Example I-19, N-(4-bromo-2,5-difluorophenyl)-6-chloro-1-(3-fluoro-2-hydroxypropyl)indole-3-sulfonamide] | 0.00316 to 0.0316 µM |
| O=S(=O)(Nc1cc(F)c(Br)cc1F)c1cn(CC(O)CO)c2nc(Cl)ccc12 (centres unmarked) [Example I-29, N-(4-bromo-2,5-difluorophenyl)-6-chloro-1-(2,3-dihydroxypropyl)pyrrolo[2,3-b]pyridine-3-sulfonamide] | 0.00316 to 0.0316 µM |
| CC(O)Cn1cc(S(=O)(=O)Nc2cc(F)c(Br)cc2F)c2ccc(Cl)cc21 (centres unmarked) [Example I-18, N-(4-bromo-2,5-difluorophenyl)-6-chloro-1-(2-hydroxypropyl)indole-3-sulfonamide] | ≤ 0.00316 µM |
| O=S(=O)(Nc1cc(F)c(Br)cc1F)c1cn(CCOCCO)c2cc(Cl)ccc12 [Example I-16, N-(4-bromo-2,5-difluorophenyl)-6-chloro-1-[2-(2-hydroxyethoxy)ethyl]indole-3-sulfonamide] | 0.00316 to 0.0316 µM |
| COc1nc(Cl)c(F)cc1NS(=O)(=O)c1cn(C)c2cc(Cl)ccc12 [Example I-31, 6-chloro-N-(6-chloro-5-fluoro-2-methoxypyridin-3-yl)-1-methylindole-3-sulfonamide] | 0.00316 to 0.0316 µM |
| COc1nc(NS(=O)(=O)c2cn(CCO)c3cc(Cl)ccc23)ccc1Br [Example I-9, N-(5-bromo-6-methoxypyridin-2-yl)-6-chloro-1-(2-hydroxyethyl)indole-3-sulfonamide] | 0.0316 to 0.316 µM |
| O=S(=O)(Nc1cc(F)c(OC(F)F)cc1F)c1cn(CC(O)CO)c2cc(Cl)ccc12 (centres unmarked) [Example I-27, 6-chloro-N-[4-(difluoromethoxy)-2,5-difluorophenyl]-1-(2,3-dihydroxypropyl)indole-3-sulfonamide] | ≤ 0.00316 µM |
| COc1nc(Cl)c(F)cc1NS(=O)(=O)c1cn(CC(F)F)c2cc(Cl)ccc12 [Example I-32, 6-chloro-N-(6-chloro-5-fluoro-2-methoxypyridin-3-yl)-1-(2,2-difluoroethyl)indole-3-sulfonamide] | 0.00316 to 0.0316 µM |
| O=S(=O)(Nc1cc(F)c(Br)cc1F)c1cn(CC(F)F)c2nc(Cl)ccc12 [Example I-6, N-(4-bromo-2,5-difluorophenyl)-6-chloro-1-(2,2-difluoroethyl)pyrrolo[2,3-b]pyridine-3-sulfonamide] | 0.0316 to 0.316 µM |
| O=S(=O)(Nc1cc(F)c(Br)cc1F)c1cn(CCO)c2cc(Cl)ccc12 [Example I-10, N-(4-bromo-2,5-difluorophenyl)-6-chloro-1-(2-hydroxyethyl)indole-3-sulfonamide] | 0.00316 to 0.0316 µM |
| O=S(=O)(Nc1cc(F)c(Br)cc1F)c1cn(CC(F)CO)c2nc(Cl)ccc12 (centres unmarked) [Example I-8, N-(4-bromo-2,5-difluorophenyl)-6-chloro-1-(2-fluoro-3-hydroxypropyl)pyrrolo[2,3-b]pyridine-3-sulfonamide] | 0.0316 to 0.316 µM |
| O=S(=O)(Nc1cc(F)c(Br)cc1F)c1cn(CCCO)c2cc(Cl)ccc12 [Example I-14, N-(4-bromo-2,5-difluorophenyl)-6-chloro-1-(3-hydroxypropyl)indole-3-sulfonamide] | 0.0316 to 0.316 µM |
| O=S(=O)(Nc1cc(F)c(Br)cc1F)c1cn(CC(O)CO)c2cc(Cl)ccc12 (centres unmarked) [Example I-28, N-(4-bromo-2,5-difluorophenyl)-6-chloro-1-(2,3-dihydroxypropyl)indole-3-sulfonamide] | 0.00316 to 0.0316 µM |
| CCn1cc(S(=O)(=O)Nc2cc(F)c(OC(F)F)cc2F)c2ccc(Cl)cc21 [Example I-23, 6-chloro-N-[4-(difluoromethoxy)-2,5-difluorophenyl]-1-ethylindole-3-sulfonamide] | 0.0316 to 0.316 µM |
| CN(C)CCn1cc(S(=O)(=O)Nc2cc(F)c(Br)cc2F)c2ccc(Cl)cc21 [Example I-15, N-(4-bromo-2,5-difluorophenyl)-6-chloro-1-[2-(dimethylamino)ethyl]indole-3-sulfonamide] | 0.0316 to 0.316 µM |
| Cn1cc(S(=O)(=O)Nc2cc(F)c(Br)cc2F)c2ccc(Cl)cc21 [Example I-12, N-(4-bromo-2,5-difluorophenyl)-6-chloro-1-methylindole-3-sulfonamide] | 0.00316 to 0.0316 µM |
| O=S(=O)(Nc1cc(F)c(Br)cc1F)c1cn(CCO)c2nc(Cl)ccc12 [Example I-30, N-(4-bromo-2,5-difluorophenyl)-6-chloro-1-(2-hydroxyethyl)pyrrolo[2,3-b]pyridine-3-sulfonamide] | 0.00316 to 0.0316 µM |

Second part, the molecule after the results:

| Kb | SMILES |
| --- | --- |
| 0.0316 to 0.316 µM | CC(=O)Cn1cc(S(=O)(=O)Nc2cc(F)c(Br)cc2F)c2ccc(Cl)cc21 [Example I-17, N-(4-bromo-2,5-difluorophenyl)-6-chloro-1-(2-oxopropyl)indole-3-sulfonamide] |
| 0.0316 to 0.316 µM | CCCn1cc(S(=O)(=O)Nc2cc(F)c(OC(F)F)cc2F)c2ccc(Cl)cc21 [Example I-25, 6-chloro-N-[4-(difluoromethoxy)-2,5-difluorophenyl]-1-propylindole-3-sulfonamide] |
| ≤ 0.00316 µM | COc1nc(OC(F)F)c(F)cc1NS(=O)(=O)c1cn(CCO)c2nc(Cl)ccc12 [Example I-35, 6-chloro-N-[6-(difluoromethoxy)-5-fluoro-2-methoxypyridin-3-yl]-1-(2-hydroxyethyl)pyrrolo[2,3-b]pyridine-3-sulfonamide] |
| 0.00316 to 0.0316 µM | Cn1cc(S(=O)(=O)Nc2cc(F)c(OC(F)F)cc2F)c2ccc(Cl)cc21 [Example I-22, 6-chloro-N-[4-(difluoromethoxy)-2,5-difluorophenyl]-1-methylindole-3-sulfonamide] |
| 0.00316 to 0.0316 µM | Cn1cc(S(=O)(=O)Nc2cc(F)c(Br)cc2F)c2ccc(Cl)nc21 [Example I-3, N-(4-bromo-2,5-difluorophenyl)-6-chloro-1-methylpyrrolo[2,3-b]pyridine-3-sulfonamide] |
| 0.00316 to 0.0316 µM | O=S(=O)(Nc1cc(F)c(OC(F)F)cc1F)c1cn(CCO)c2cc(Cl)ccc12 [Example I-21, 6-chloro-N-[4-(difluoromethoxy)-2,5-difluorophenyl]-1-(2-hydroxyethyl)indole-3-sulfonamide] |
| ≤ 0.00316 µM | O=C(O)Cn1cc(S(=O)(=O)Nc2cc(F)c(Br)cc2F)c2ccc(Cl)cc21 [Example I-11, 2-[3-[(4-bromo-2,5-difluorophenyl)sulfamoyl]-6-chloroindol-1-yl]acetic acid] |
| 0.00316 to 0.0316 µM | COc1nc(Cl)c(F)cc1NS(=O)(=O)c1cn(CC(O)CO)c2cc(Cl)ccc12 (centres unmarked) [Example I-34, 6-chloro-N-(6-chloro-5-fluoro-2-methoxypyridin-3-yl)-1-(2,3-dihydroxypropyl)indole-3-sulfonamide] |
| 0.00316 to 0.0316 µM | O=S(=O)(Nc1cc(F)c(OC(F)F)cc1F)c1cn(CCF)c2cc(Cl)ccc12 [Example I-24, 6-chloro-N-[4-(difluoromethoxy)-2,5-difluorophenyl]-1-(2-fluoroethyl)indole-3-sulfonamide] |
| 0.00316 to 0.0316 µM | O=S(=O)(Nc1cc(F)c(Br)cc1F)c1cn(CC(O)C(F)(F)F)c2cc(Cl)ccc12 (centres unmarked) [Example I-20, N-(4-bromo-2,5-difluorophenyl)-6-chloro-1-(3,3,3-trifluoro-2-hydroxypropyl)indole-3-sulfonamide] |
| ≤ 0.00316 µM | COc1nc(Cl)c(F)cc1NS(=O)(=O)c1cn(CC(O)CF)c2cc(Cl)ccc12 (centres unmarked) [Example I-33, 6-chloro-N-(6-chloro-5-fluoro-2-methoxypyridin-3-yl)-1-(3-fluoro-2-hydroxypropyl)indole-3-sulfonamide] |
| 0.00316 to 0.0316 µM | Cn1cc(S(=O)(=O)Nc2cc(F)c(OC(F)F)cc2F)c2ccc(Cl)nc21 [Example I-4, 6-chloro-N-[4-(difluoromethoxy)-2,5-difluorophenyl]-1-methylpyrrolo[2,3-b]pyridine-3-sulfonamide] |
| 0.0316 to 0.316 µM | O=S(=O)(Nc1cc(F)c(Br)cc1F)c1cn(CCCl)c2cc(Cl)ccc12 [Example I-13, N-(4-bromo-2,5-difluorophenyl)-6-chloro-1-(2-chloroethyl)indole-3-sulfonamide] |
